In patent US20090306214A1, “Use of Syk Tyrosine Kinase Inhibitors for the Treatment of Cell Proliferative Disorders” (priority 2006, published 2009):
“Also recorded” adds a separate entry of the source.

Tests used:
[1] = system: HL-60 cells; test: Viability of HL-60 cells after 3 days, XTT method; type: cell-based, human
Text: (§1) Secondly, the effect of compounds of the invention may be compared to the natural inhibitor of Syk, piceatannol.

[2] = system: Jurkat cells; test: Jurkat cell survival after a seven day period (Syk-containing); type: cell-based; conditions: 50 μg/ml; seven days; FIG. 4
Description: FIG. 4 illustrates the effect of AV 61S and AV 74S on Jurkat cell survival after a seven day period;
(§2) The jurkat E6.1 line is a Syk-deficient line; in fact, AV 61S after 7 days has no effect on this cell line (i.e., neither apoptosis nor inhibition, see […]). […] The viability study has been performed after 24 and 48 hours of incubation, each time for 3 evaluations; within 1, 3 and 6 hours.

[3] = system: E6.1 Jurkat cells; test: E6.1 Jurkat (Syk-deficient) cell survival and viability; type: cell-based
Description: FIG. 18 illustrates, in comparison with cyclosporin-treated Jurkat cells, the viability of E6.1 Jurkat cells treated with differing concentrations of AV 61S or AV 74S after 24 hours; and
FIG. 19 illustrates, in comparison with cyclosporin-treated Jurkat cells, the viability of E6.1 Jurkat cells treated with differing concentrations of AV 61S or AV 74S after 48 hours.
as §2

[4] = system: PHA-activated PBMCs; test: Inhibition of PHA-activated PBMCs (lymphocyte proliferation, thymidine incorporation); type: cell-based, human; conditions: varying concentrations
[5] = system: human PBMC monocytes; test: Effect on human PBMC monocytes; type: cell-based; conditions: FIGS. 11 and 12
Text: FIG. 12 illustrates the effect of AV 74S treatment on monocytes;
FIGS. 11 and 12 compare the effect of compounds of the invention—AV 61S and AV 74S—on human PBMC T and B cells (FIG. 11) versus human PBMC monocytes (FIG. 12). […] T cells contain ZAP-70, rather than Syk, but B lymphocytes do contain Syk. […] As such, the effect seen on the B and T cells is believed to be due to the activity on the B cells, not the T cells.

[6] = Viability of HL-60 cells after 3 days, XTT method; type: cell-based, human; conditions: human, HL-60 cells
Text: as §1

[7] = system: HL-60 cells; test: Apoptosis of HL-60 cells after 2 days; type: cell-based, human
Text: as §1

SMILES | viability of HL-60 cells ([1]; 50 μg/ml + Pic 10 μM) | viability of HL-60 cells ([1]; 50 μg/ml + Pic 30 μM) | viability of HL-60 cells ([1]; 50 μg/ml, no piceatannol) | viability of HL-60 cells ([1]; 100 μg/ml + Pic 10 μM) | viability of HL-60 cells ([1]; 100 μg/ml + Pic 30 μM) | viability of HL-60 cells ([1]; 100 μg/ml, no piceatannol) | killing of Syk-containing Jurkat cells [2] [%] | viability of E6.1 Jurkat cells ([3]; 24 and 48 hours of incubation, FIGS. 18 and 19) | effect on Syk-deficient Jurkat E6.1 cell survival ([3]; after 7 days, FIG. 3) | inhibitory effect on PHA-activated PBMCs ([4]; DMSO carrier, FIG. 1) | inhibitory effect on PHA-activated PBMCs ([4]; PBS carrier, FIG. 2) | effect on monocytes as compared to T and B cells [5] | viability at 3 days, 10 μM ([6]; Pic 10 μM alone) [%] | viability at 3 days, 30 μM ([6]; Pic 30 μM alone) [%] | Apoptosis of HL-60 cells ([7]; Pic. 10 μM alone) [%] | Apoptosis of HL-60 cells ([7]; Pic. 30 μM alone) [%]
CC(CO)OCC(C)OCC(C)OCC(C)OCC(C)OCC(C)OCC(C)OC[C@H](Cc1ccccc1)NC(=O)CCc1ccc(O)cc1 (stereo partly shown) [AV 61S] | 97 % of control | 83 % of control | 81 % of control | 59 % of control | 23 % of control | 36 % of control | ~100 | do not kill them | no effect; also recorded: lack of effect | inhibitory effect | lesser inhibitory effect | more profound on monocytes | – | – | – | –
Oc1cc(O)cc(/C=C/c2ccc(O)c(O)c2)c1 [piceatannol, reference compound] | – | – | – | – | – | – | – | – | – | – | – | – | 89 | 79 | 20 | 33
